One series deals with A549. Description: Cellular activity A549. The class given is cell-based. The settings on record: Homo sapiens. Put shortly: (§1)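 Cultured cells were exposed to compounds at various concentrations for roughly one hour to one week, enough to induce cell death or inhibit migration. Viable cells remaining after treatment were then counted.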
The target of series [1] is kinases (not incl. Aurora). Description: Kinase inhibition profile (not incl. Aurora). The class given is biochemical. The settings on record: at 1 μM; hit means >79% inhibition. As for the experimental part: (§2) The Aurora and other kinase assays described here were performed on two Caliper Life Sciences systems, the LC3000 and the Desktop Profiler. These provide data on enzyme activity via measurement of the relative amounts of phosphorylated or unphosphorylated fluorescently labelled substrate peptide at the end of an enzymatic reaction. These different states of peptide are resolved by applying a potential difference across the sample. The presence of a charged phosphate group on the product (as opposed to the substrate) causes a different peptide mobility between the two peptides. This is visualized by excitation of a fluorescent label on the substrate and product peptides and represented as peaks within the analysis software.
The Desktop Profiler utilizes the same principal as the LC 3000 for calculating percentage conversion of a substrate to product. Caliper Life Sciences provided proprietary flash frozen pre-made 384 well plates containing selected kinases. Each column in the 384 well plate contained a particular selected kinase. A second plate, the ‘substrate plate’ contained a mix of fluorescently labeled peptide substrate and ATP. These were arranged in columns so that transfer for substrate plate to enzyme plate provided the correct enzyme with the correct substrate/ATP concentration.
Compounds were added to a thawed enzyme plate in the desired format, in single concentrations. Reactions were initiated by transfer of the ubstrate/ATP mix from the substrate plate. The enzyme plate was incubated for 90 mins at 25 °C. The reaction was stopped by addition of […] of Stop Buffer (100 mM HEPES pH 7.5, 0.015% Brij-35, 10 mM EDTA (Sigma, E7889)).
Plates were read in a manner identical to that of the LC3000, and the ratio between substrate and product peaks provided the activity of the enzyme in that well. This was best represented by a plate heat map which colors each well by percent inhibition as compared to positive and negative controls (no inhibitors and no ATP respectively).

Another series concerns the target Aurora B (Homo sapiens, UniProt Q96GD4). Briefly: Aurora B enzyme assay (Caliper). In kind it is biochemical. In a few lines: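 Kinase activity was measured by microfluidic mobility-shift separation of phosphorylated and unphosphorylated fluorescently labelled substrate peptide at the end of the enzymatic reaction. Product and substrate were resolved by their charge difference and detected by fluorescence.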

For series [2] the following is noted: from NC(=O)[C@H]1[C@@H]2CC(CNCc3cccc(N)c3)[C@@H](C2)[C@H]1Nc1nc(Cl)ncc1F; snar bond.
In the next series the test system is MiaPaca2. Briefly: Cellular activity MiaPaca2. The settings on record: Homo sapiens, MIA PaCa-2. In kind it is cell-based. In a few lines:
as §1

A further series deals with T1, Aurora A (Homo sapiens, UniProt O14965).
T1 construct: N-terminal GST fusion with full length Aurora A (1-403 amino acids); purchased Carna Biosciences 05-101
T1 sequence (O14965 1-403): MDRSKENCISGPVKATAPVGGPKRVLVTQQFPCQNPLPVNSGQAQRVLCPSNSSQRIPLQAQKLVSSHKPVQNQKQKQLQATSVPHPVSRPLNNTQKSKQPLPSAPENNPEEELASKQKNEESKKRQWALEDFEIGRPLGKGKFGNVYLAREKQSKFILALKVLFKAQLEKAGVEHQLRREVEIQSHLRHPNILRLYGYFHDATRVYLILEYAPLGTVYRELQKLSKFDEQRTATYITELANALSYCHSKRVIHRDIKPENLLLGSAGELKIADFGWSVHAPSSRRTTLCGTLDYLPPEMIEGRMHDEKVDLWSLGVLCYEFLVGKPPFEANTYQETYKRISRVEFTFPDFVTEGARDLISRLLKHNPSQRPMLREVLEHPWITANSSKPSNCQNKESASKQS
Briefly: Aurora A enzyme assay (Caliper LC3000 mobility shift). The class given is biochemical. In a few lines:
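Full-length N-terminal GST-Aurora A (0.067 ng/µl) with 15 µM ATP and 1 µM FITC-LRRASLG peptide in 100 mM HEPES pH 7.5, 1 mM MgCl2, 1 mM DTT, 0.015% Brij-35, 90 min at 25 °C, EDTA-stopped. Off-chip mobility shift measured percent substrate conversion; IC50 from sigmoidal dose-response fit.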

The target in the next series is T2, Pyk2(h) (Homo sapiens, UniProt Q14289).
T2 construct: purchased Caliper Life Sciences
Briefly: Inhibition of other kinases IC50 (Table 2). In kind it is biochemical. As for the experimental part:
as §2

Another series concerns the target T3, FAK(h) (Homo sapiens, UniProt Q05397).
T3 construct: purchased Caliper Life Sciences
Briefly: Inhibition of other kinases IC50 (Table 2). The class given is biochemical. As for the experimental part: as §2

For another series, the target named is T4, IRAK4(h) (Homo sapiens, UniProt Q9NWZ3).
T4 construct: purchased Caliper Life Sciences
T4 sequence (Q9NWZ3 1-460): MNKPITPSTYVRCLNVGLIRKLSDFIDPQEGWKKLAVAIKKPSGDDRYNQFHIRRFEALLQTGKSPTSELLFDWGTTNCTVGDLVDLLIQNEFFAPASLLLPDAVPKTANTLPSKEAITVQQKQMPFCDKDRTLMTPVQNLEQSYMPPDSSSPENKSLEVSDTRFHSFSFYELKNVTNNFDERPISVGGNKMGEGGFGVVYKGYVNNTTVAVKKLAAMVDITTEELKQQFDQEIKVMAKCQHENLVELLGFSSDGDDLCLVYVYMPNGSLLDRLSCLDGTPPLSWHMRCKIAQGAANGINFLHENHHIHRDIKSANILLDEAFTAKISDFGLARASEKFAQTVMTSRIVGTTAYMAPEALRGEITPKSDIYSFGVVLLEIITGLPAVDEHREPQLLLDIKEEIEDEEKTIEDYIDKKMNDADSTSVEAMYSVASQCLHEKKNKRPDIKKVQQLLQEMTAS
Description: Inhibition of other kinases IC50 (Table 2). In kind it is biochemical. As for the experimental part:
as §2

In the next series the target is T5, Tie2(h) (Homo sapiens, UniProt Q02763).
T5 construct: purchased Caliper Life Sciences
Briefly: Inhibition of other kinases IC50 (Table 2). The class given is biochemical. As for the experimental part:
as §2

Another series has as its target T6, Ret(h) (Homo sapiens, UniProt P07949).
T6 construct: purchased Caliper Life Sciences
Description: Inhibition of other kinases IC50 (Table 2). In kind it is biochemical. As for the experimental part:
as §2

T5 sequence (Q02763 23-1124): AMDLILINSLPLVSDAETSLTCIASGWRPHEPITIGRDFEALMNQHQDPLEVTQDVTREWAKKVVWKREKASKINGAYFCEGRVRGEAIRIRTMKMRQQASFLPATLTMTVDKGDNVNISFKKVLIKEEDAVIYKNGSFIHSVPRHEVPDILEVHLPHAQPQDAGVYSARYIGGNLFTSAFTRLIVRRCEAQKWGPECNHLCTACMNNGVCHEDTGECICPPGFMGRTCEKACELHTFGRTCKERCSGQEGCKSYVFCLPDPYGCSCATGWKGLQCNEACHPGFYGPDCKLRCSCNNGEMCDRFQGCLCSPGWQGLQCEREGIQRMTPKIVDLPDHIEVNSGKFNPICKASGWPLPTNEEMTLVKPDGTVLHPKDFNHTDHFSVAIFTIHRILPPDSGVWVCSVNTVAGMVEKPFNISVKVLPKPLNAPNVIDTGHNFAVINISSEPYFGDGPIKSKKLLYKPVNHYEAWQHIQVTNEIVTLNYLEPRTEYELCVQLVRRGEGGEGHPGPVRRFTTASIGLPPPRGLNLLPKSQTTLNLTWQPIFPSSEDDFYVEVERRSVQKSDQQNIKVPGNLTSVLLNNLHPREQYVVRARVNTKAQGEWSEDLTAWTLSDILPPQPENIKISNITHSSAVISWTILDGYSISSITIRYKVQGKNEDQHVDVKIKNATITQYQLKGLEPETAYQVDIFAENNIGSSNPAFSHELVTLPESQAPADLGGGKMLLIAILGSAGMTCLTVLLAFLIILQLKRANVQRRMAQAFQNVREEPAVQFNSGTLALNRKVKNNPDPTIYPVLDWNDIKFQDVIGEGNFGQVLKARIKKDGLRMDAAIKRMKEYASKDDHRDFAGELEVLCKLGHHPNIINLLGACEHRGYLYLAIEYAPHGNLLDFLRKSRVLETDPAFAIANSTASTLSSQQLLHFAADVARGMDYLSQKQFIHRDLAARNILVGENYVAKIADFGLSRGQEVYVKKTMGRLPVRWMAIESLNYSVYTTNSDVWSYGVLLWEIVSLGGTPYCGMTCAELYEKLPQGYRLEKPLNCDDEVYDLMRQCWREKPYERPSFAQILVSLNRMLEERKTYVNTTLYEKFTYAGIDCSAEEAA
T6 sequence (P07949 29-1114): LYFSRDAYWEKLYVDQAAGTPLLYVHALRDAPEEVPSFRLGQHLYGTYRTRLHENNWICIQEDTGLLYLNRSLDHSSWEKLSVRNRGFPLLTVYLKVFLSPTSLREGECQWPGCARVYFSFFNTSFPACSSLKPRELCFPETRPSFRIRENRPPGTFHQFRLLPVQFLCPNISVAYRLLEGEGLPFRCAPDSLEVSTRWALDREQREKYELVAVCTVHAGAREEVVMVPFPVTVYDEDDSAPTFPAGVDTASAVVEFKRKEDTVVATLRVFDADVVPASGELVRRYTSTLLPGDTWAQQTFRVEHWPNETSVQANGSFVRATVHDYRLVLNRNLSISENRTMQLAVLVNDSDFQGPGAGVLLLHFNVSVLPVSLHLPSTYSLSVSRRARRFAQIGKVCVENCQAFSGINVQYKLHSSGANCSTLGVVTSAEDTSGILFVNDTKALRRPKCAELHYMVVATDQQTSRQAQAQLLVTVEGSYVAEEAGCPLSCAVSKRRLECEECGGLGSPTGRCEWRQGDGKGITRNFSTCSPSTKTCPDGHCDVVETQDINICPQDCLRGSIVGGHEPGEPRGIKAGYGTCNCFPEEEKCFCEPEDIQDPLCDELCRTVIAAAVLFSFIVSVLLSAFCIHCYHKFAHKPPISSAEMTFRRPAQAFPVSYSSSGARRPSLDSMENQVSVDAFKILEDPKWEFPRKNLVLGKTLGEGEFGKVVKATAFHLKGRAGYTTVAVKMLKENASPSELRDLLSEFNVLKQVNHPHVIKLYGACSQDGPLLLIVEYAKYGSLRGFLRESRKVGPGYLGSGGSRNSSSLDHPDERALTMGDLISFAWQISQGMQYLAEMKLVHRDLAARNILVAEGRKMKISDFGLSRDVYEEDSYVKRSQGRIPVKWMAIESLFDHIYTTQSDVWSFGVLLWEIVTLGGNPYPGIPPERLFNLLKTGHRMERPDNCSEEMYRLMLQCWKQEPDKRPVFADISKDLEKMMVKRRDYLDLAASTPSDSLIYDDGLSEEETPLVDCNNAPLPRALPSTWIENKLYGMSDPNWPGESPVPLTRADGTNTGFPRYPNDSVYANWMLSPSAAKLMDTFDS
T2 sequence (Q14289 whole entry): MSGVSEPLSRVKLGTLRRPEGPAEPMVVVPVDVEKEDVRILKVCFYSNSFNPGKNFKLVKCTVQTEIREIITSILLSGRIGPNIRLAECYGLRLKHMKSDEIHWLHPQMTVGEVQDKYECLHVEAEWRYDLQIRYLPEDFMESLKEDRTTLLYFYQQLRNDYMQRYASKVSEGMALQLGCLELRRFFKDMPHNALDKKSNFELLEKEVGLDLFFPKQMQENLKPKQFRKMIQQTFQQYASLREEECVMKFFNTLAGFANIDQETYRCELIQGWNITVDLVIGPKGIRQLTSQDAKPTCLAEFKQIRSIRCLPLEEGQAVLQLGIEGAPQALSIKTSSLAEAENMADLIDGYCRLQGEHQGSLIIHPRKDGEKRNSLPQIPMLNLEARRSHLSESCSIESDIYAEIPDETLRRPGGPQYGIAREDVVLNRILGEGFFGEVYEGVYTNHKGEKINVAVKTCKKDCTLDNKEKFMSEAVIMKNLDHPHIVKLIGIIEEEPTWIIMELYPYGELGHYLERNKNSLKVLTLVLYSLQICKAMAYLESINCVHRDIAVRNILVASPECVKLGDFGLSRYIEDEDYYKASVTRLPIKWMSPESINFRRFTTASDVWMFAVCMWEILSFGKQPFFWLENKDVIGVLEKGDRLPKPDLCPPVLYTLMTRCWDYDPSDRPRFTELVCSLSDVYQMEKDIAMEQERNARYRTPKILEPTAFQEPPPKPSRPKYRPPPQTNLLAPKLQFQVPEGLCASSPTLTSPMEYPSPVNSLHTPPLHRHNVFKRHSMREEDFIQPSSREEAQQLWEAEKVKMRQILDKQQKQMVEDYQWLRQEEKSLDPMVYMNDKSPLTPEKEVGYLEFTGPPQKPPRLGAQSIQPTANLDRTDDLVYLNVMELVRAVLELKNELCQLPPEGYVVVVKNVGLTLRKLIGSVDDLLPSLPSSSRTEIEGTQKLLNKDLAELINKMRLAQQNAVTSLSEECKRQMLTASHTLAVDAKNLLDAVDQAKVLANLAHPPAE
T3 sequence (Q05397 whole entry): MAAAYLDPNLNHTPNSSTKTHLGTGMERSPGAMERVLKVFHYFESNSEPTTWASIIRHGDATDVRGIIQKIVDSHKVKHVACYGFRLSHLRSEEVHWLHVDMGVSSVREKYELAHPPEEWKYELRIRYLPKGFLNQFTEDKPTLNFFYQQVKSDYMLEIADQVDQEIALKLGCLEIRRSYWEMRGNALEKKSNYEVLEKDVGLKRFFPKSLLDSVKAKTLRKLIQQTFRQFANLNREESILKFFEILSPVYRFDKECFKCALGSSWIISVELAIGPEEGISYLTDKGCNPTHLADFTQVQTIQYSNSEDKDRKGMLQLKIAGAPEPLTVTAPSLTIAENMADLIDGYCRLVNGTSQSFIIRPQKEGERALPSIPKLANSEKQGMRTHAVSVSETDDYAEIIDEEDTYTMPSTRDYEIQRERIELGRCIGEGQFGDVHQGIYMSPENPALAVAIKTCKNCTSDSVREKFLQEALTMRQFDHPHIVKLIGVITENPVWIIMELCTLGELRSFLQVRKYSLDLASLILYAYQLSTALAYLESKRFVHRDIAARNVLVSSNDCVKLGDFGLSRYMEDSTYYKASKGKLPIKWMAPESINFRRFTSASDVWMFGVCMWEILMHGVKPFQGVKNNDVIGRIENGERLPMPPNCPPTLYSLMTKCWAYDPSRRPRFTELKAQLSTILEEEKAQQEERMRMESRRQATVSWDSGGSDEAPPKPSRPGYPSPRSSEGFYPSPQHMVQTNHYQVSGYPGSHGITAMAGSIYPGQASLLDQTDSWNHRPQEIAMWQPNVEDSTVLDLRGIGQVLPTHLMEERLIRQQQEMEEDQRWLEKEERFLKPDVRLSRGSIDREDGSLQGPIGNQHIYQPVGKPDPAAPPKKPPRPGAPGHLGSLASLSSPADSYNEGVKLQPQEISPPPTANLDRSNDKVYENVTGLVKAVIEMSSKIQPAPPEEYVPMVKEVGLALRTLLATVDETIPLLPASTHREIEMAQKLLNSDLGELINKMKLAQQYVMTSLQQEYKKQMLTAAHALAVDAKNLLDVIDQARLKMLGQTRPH
Aurora B, sequence (Q96GD4 whole entry): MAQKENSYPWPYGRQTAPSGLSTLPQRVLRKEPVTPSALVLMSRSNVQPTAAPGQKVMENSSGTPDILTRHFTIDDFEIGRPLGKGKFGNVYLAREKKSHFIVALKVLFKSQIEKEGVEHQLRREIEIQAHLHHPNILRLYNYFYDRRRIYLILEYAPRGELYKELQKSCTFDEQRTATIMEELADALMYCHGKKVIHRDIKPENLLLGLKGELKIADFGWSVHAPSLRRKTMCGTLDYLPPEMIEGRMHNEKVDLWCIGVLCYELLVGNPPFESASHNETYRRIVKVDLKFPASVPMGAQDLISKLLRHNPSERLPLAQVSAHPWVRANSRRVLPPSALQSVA

The IC50 is the concentration at which inhibition is half-maximal. As to `NC(=O)[C@H]1[C@@H]2CC3CNCc4cccc(c4)Nc4ncc(F)c(n4)N[C@@H]1[C@@H]3C2` (some centres unmarked), the IC50 lay within 1 to 100 nM in the series on A549, 1 to 100 nM on Aurora B, 1 to 100 nM in the series on MiaPaca2 and 101 to 1000 nM at Aurora A. For the same molecule, the “Kinase Inhibition Profile (not incl. Aurora) # kinases hit/# kinases tested” value in series [1] is on record as 1/50 at 1 μM. The same molecule registered a ring closure, yield of all isomers in series [2] of 7.6%.
As for `NC(=O)[C@H]1[C@H]2C[C@H]3[C@H]1Nc1nc(ncc1F)Nc1cccc(c1)CCS[C@@H]3C2` [Example 18], the IC50 against Pyk2(h) fell in the range of 101 to 1000 nM; at FAK(h) it was 101 to 1000 nM; against IRAK4(h) it was 1 to 100 nM; against Tie2(h), 1000 to 6250 nM; against Ret(h) it was 1000 to 6250 nM.
